In patent US9180183B2, “Phospholipid drug analogs” (Telormedix SA, priority 2010, dated 2015):
Values joined by “and” are separate entries in the source; they are usually repeats but may differ in a detail not shown here. Identical values can stand only once. “Also recorded” adds a separate entry of the source.

Tests used:
[1] = tested on: recombinant protein antigens from Plasmodium falciparum and Mycobacterium ulcerans; assay: Pilot immunization study with adjuvanted protein antigens in mice; type: in vivo
Protocol: A pilot immunization study was conducted using Compound A and SC12 adjuvanted protein antigens. The immunization experiments were performed with two recombinant proteins expressed in E. coli. One antigen was derived from the malaria parasite Plasmodium falciparum and the other one from Mycobacterium ulcerans, which cause the ulcerative skin disease Buruli ulcer.

[2] = Plasma stability in human plasma (second experiment); settings: up to 120 min
Protocol: Second experiment: Test compounds (5 mM in DMSO) were diluted at the final concentration of 250 μM with ACN-MeOH 1:1.
Human plasma (1.180 ml) was spiked with 20 μl of 250 μM solution of the compound (4.16 μM final concentration) and aliquots of 50 μl volume were taken at 0, 15, 30, 60, 120 min and 5 hrs, and immediately quenched with 200 μl of a solution of Verapamil 250 ng/ml (internal standard, I.S.) in ACN:MeOH 95:5. Samples were then centrifuged for 20 min at 3000 rpm at 10° C. and analyzed as reported below. […] The supernatant fractions were analyzed by LC/MS/MS. Zero-time incubations were used as 100% values.
Stability was calculated as percentage remaining of the area ratio compound/I.S. at each time point vs. area ratio compound/I.S. at time 0 min.

[3] = Heat stability of solid samples at 80° C. (HPLC); type: physicochemical; settings: solid sample
Protocol: Solid samples of each compound were maintained at 80° C. and analyzed by HPLC.

[4] = Solubility in organic solvents; type: physicochemical; settings: especially in ACN
CYP2E1 = CYP2E1 (Homo sapiens (Human), UniProt P05181); assay: Fluorescent High Throughput P450 assay CYP2E1; type: in vitro ADME
Chain of CYP2E1 (P05181 whole entry, looked up): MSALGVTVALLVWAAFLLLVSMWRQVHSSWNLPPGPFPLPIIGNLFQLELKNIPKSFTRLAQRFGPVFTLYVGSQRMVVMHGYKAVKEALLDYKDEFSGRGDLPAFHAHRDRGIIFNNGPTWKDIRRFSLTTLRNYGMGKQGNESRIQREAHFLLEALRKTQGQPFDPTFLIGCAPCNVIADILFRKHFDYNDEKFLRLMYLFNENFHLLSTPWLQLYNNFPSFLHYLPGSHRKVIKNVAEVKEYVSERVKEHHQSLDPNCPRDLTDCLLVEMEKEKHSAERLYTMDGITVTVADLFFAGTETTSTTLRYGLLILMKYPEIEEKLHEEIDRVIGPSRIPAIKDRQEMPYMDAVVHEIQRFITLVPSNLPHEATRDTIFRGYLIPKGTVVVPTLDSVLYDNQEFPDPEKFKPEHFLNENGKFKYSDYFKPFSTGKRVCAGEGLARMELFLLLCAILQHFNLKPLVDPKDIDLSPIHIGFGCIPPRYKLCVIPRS
Protocol: (§1) Inhibition of the P450 isoforms was measured in specific assays using specific substrates that become fluorescent upon CYP metabolism. Compounds, dissolved in ACN (acetonitrile) (CYP2E1, CYP2C8, CYP2B6, CYP3A5) or DMSO (all remaining isoforms), were tested in duplicate (n=2) in concentration-response curves (eight concentrations) in a 96-well plate containing incubation/NADPH regenerating buffer. Specific isoenzymes and substrates were added and incubated at 37° C. Reactions were terminated at different times, depending on the assays, and plates read on a Fluoroskan Ascent at the appropriate emission/excitation wavelengths. Concentration-response curves performed in duplicate for known inhibitors for each isoenzyme were tested in every assay as positive control.

[5] = tested on: Escherichia coli WP2 uvrA; assay: Bacterial mutation assay, Escherichia coli; type: cell-based; settings: absence or presence of S9 metabolism
Protocol: The five tester strains TA1535, TA1537, TA98, TA100 and WP2 uvrA were used. Experiments were performed both in the absence and presence of metabolic activation, using liver S9 fraction from rats pre-treated with phenobarbitone and betanaphthoflavone. SC12 was used as a solution in dimethylsulfoxide (DMSO).

CYP3A4 = CYP3A4 (Homo sapiens (Human), UniProt P08684); assay: Fluorescent High Throughput P450 assay CYP3A4; type: in vitro ADME
Chain of CYP3A4 (P08684 whole entry, looked up): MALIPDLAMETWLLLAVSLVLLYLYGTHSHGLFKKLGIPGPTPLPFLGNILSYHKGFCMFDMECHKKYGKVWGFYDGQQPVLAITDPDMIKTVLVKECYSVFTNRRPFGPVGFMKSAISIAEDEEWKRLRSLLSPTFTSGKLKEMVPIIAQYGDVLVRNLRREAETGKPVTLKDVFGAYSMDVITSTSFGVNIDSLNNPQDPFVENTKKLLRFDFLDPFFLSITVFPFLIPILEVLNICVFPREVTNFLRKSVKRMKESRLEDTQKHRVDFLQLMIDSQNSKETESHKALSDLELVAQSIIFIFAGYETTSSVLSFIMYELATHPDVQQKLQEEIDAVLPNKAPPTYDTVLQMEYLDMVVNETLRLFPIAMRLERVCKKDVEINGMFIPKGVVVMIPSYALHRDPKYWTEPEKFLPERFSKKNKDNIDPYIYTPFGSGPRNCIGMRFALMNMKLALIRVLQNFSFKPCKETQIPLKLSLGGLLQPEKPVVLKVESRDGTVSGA
Protocol: as §1

CYP2C9 = CYP2C9 (Homo sapiens (Human), UniProt P11712); assay: Fluorescent High Throughput P450 assay CYP2C9; type: in vitro ADME
Chain of CYP2C9 (P11712 whole entry, looked up): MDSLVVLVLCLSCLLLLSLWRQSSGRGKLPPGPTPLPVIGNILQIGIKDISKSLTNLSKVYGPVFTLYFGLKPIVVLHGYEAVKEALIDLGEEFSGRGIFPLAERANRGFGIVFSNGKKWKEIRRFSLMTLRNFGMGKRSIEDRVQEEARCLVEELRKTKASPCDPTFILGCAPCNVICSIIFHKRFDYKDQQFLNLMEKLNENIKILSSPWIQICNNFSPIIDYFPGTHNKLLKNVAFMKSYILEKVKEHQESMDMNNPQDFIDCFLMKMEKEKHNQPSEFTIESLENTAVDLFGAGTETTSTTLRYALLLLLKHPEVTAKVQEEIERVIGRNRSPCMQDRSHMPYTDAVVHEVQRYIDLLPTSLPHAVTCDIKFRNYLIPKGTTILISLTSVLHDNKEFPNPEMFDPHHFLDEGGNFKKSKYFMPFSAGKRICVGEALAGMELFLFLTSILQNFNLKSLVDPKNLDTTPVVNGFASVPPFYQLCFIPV
Protocol: as §1

[6] = Single dose intravenous toxicity study in rats; type: in vivo, Sprague Dawley rat
Protocol: An additional group, similarly composed, received the vehicle alone and acted as a control. […] Clinical signs were limited to piloerection and reduced activity, observed on the day of dosing.
In the main phase, 5 male and 5 female animals were dosed at 90 mg/kg and observed for a period of 14 days. A second group, similarly constituted, received the vehicle alone and acted as control. […] In addition, one male and one female dosed at 90 mg/kg were found dead on Day 2 of the study. Twitches, ataxia, piloerection, reduced activity and hunched posture were the major signs observed in animals before death. […] Piloerection was observed up to Day 3 of the study. A second group, similarly composed, was dosed at 80 mg/kg.

[7] = Serum exposure after intravesical chronic treatment in mouse; settings: intravesical, LLOQ 0.5 ng/ml
Protocol: Serum samples were taken at time points: day 0, 2 hours, day 1, 24 hours, and day 6, 2 hours.
Samples were evaporated and re-suspended in 70 microliters of acetonitrile/methanol 1:1.

human whole blood = assay: Cytokine secretion in human whole blood assay (ELISA); type: cell-based; settings: for IL-12p40 levels: all donors
Protocol: Before drawing the blood, the compounds were added to 96 well round bottom plates in a 10× diluted sample at 20 ul. The compounds were diluted in RPMI media without serum but with antibiotics. Antibiotics were added at a 10× concentration. After drawing the blood, the whole blood sample was gently mixed to obtain a homogeneous sample, and 180 ul was added to each well.
All compounds were setup in concentrations at 0-0.01-0.03-0.1-0.5-2.0-10.0 micromolar as the final concentration. Vehicle control was DMSO control, where we used the highest concentration used for the compounds. After addition of blood, all plates were gently agitated at 37° C. and 5% CO2 until harvest.
Concentrations of cytokines were determined by ELISA from R&D Systems. The results were analyzed in Graph Pad Prism in order to prepare dose-response curves, and for determination of EC50 values. FACS analysis was made by using Becton-Dickinson FACSDiva software and subsequently illustrated in Graph Pad Prism.

[8] = whole blood, 6 hours incubation

CCCCCCCCCCCC(=O)OCC(COP(=O)(O)OCCNC(=O)c1ccc(Cn2c(=O)[nH]c3c(N)nc(OCCOC)nc32)cc1)OC(=O)CCCCCCCCCCC (stereo not shown) [SC12]
local side effects ([1]; three s.c. immunizations with 10 nMol adjuvant): No local side effects | IgG responses against the target antigens ([1]; three s.c. immunizations, 20 micrograms antigen mixed with 10 nMol adjuvant, after the third immunization): developed IgG responses | stability classification [2]: stable | HPLC purity ([3]; After 2 hrs at 80° C.): 90% HPLC | HPLC purity ([3]; After 22 hrs at 80° C.): 88% HPLC | HPLC purity ([3]; t = 0): 90% HPLC | solubility [4]: low solubility | inhibition of CYP2E1 (in words) (CYP2E1): moderate inhibition | toxicity to tester strains ([5]; toxicity test, 50.0-5000 micrograms/plate): No toxicity was observed | reverse mutation / revertant colonies ([5]; up to 5000 micrograms/plate): did not induce two-fold increases in the number of revertant colonies; also recorded: does not induce reverse mutation | inhibition of CYP3A4 (in words) (CYP3A4): moderate inhibition | inhibition of CYP2C9 (in words) (CYP2C9): weak inhibition | mortality ([6]; 76 mg/kg i.v., preliminary phase): No mortality occurred | mortality and clinical signs ([6]; 80 mg/kg i.v., main phase): No mortality occurred and no clinical signs were recorded | clinical signs ([6]; 85 mg/kg i.v., preliminary phase): Piloerection | mortality and signs of toxicity ([6]; 90 mg/kg i.v., main phase): induced mortality or significant signs of toxicity | mortality ([6]; 90 mg/kg i.v., preliminary phase): No mortality occurred | mortality ([6]; 100 mg/kg i.v., preliminary phase): Both animals died at dosing | maximum tolerated dose ([6]; single intravenous administration, rat): 80 mg/kg | SC12 levels in serum, Mean ± S.D. ([7]; Day 0, 2 hours): 0.5 ± 0.5 ng/mL | SC12 levels in serum, individual mice ([7]; Day 0, 2 hours): <LLOQ (2×) and 1.0 ng/ml and 0.5 ng/ml | SC12 levels in serum, Mean ± S.D. ([7]; Day 1, 24 hours): <LLOQ | SC12 levels in serum, individual mice ([7]; Day 1, 24 hours): <LLOQ | SC12 levels in serum, Mean ± S.D. ([7]; Day 6, 2 hours): <LLOQ | SC12 levels in serum, individual mice ([7]; Day 6, 2 hours): <LLOQ | induction of DC secreted cytokines (in words) (human whole blood; supernatant from whole blood cell assays): potent inducers | range of IL-6 secretion (human whole blood; whole blood, three donors): 4000 to 8000 pg/mL | ranges of IFN-alpha secreted (human whole blood; whole blood, three donors): 1000 to 2000 pg/mL | IL-10 production (in words) (human whole blood; [8]): no IL-10 production was seen | IL-12p40 levels (human whole blood; [8]): 8.000 to 12.000 pg/mL | IL-12p40 levels (human whole blood; whole blood, 24 hours incubation): 20.000 to 25.000 pg/mL
